This is an account of results in patent publication US10906881B2, “Inhibitors of arginine gingipain” (priority 2015, dated 2021).

One data set concerns the target T1, trypsin (Bos taurus, UniProt P00760).
T1 construct: gene PRSS1
T1 sequence (P00760 24-246): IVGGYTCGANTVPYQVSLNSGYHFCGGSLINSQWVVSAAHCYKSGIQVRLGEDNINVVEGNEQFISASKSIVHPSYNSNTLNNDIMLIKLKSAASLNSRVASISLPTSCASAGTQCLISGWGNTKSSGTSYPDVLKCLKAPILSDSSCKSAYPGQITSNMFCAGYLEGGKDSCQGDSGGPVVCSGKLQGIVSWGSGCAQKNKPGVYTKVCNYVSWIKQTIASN
Description: Trypsin inhibition assay. The data set is classed as biochemical. The protocol:
(§1) The inhibitory of activity of compounds described herein was tested against Kgp, RgpB, RgpA, and trypsin.

In the next data set the target is T2, RgpB (Porphyromonas gingivalis, UniProt P95493).
T2 construct: 0.02 nM RgpB, isolated from culture of Porphyromonas gingivalis; made in house; host or cells: Porphyromonas gingivalis culture (native enzyme purified from the bacterium, not recombinant)
The data set can be described thus: RgpB fluorogenic inhibition assay. The data set is classed as biochemical. The protocol: The capacities of compounds of the present invention to inhibit the activity of RgpB were measured in a fluorogenic assay similar to those described in Barret Biochemical Journal. 1980, 187(3), 909. The specific assay conditions were as follows. Buffer: pH=7.5, 100 mM Tris-HCl, 75 mM NaCl, 2.5 mM CaCl2, 10 mM cysteine, 1% DMSO after all additions. Protein: 0.02 nM RgpB, isolated from culture of Porphyromonas gingivalis, as described in Pike et al. J Biol. Chem. 1994, 269(1), 406, and Potempa and Nguyen. Current Protocols in Protein Scienc. 2007, 21.20.1-21.20.27. Fluorogenic substrate: 10 uM Boc-Phe-Ser-Arg-MCA. Time=90 minutes. Temperature=37° C. Each compound: 10 concentrations, starting at either 100 uM or 100 nM, with lower concentrations generated by serial 3-fold dilutions. By testing a range of concentrations for each compound, the concentration required to inhibit the activity of RgpB by 50% (the “IC50”) was determined. Under the described assay conditions, signal-to-noise was excellent, and Z factor was greater than 0.7.
as §1

The conditions of data set [1]: oral RTV 15 minutes prior to Kyt-36; from U.S. patent application Ser. No. 14/875,416; cited from earlier work.
The target of the next data set is RgpA (Porphyromonas gingivalis, UniProt B2RM93). Description: RgpA inhibition assay. The data set is classed as biochemical. The protocol: as §1
Another data set concerns the target Kgp (Porphyromonas gingivalis, UniProt B2RLK2). The data set can be described thus: Kgp inhibition assay. In kind it is biochemical. The protocol:
as §1

Data set [2] relates to SH-SY5Y neuroblastoma cells. The data set can be described thus: Rescue of neuroblastoma cells from P. gingivalis toxicity. In kind it is cell-based. To be noted: 4 μg/mL, P. gingivalis ATCC BAA-308, MOI 1:1000, 48 hours. The method, then:
SH-SY5Y neuroblastoma cells were cultured based on established methods [Saberi S., et al. Cell Mol Neurobiol 2013. 33: 5 747-751]. The strain P. gingivalis ATCC BAA-308 was streaked onto a brain heart infusion agar (BHA), and the plate was incubated for 72 h at 37° C. in an anaerobic workstation with an atmosphere of 80% N2, 10% CO2, and 10% H2. The plates were removed from the anaerobic work station for testing and processed under ambient atmosphere. The bacteria were harvested and suspended in complete medium-Pen/Strep (without Pen/Strep). The turbidity of the suspension was adjusted to 0.5, as measured using a MicroScan® Turbidity Meter (Siemens), which is equivalent to ˜6×10^8 cfu/mL (for MOI 1:1000) and incubated with the cells for 48 hours. 4 μg/mL of Compound 13 was added to the media at the time of introduction of the bacteria. Results were recorded using a digital microscope camera (FIG. 5). […] Other compounds of the invention are tested as described for Compound 13.

For data set [3], the system named is gingipain-containing P. gingivalis supernatant. The data set can be described thus: Degradation of human collagen by P. gingivalis supernatant (SDS-PAGE). To be noted: 50 μM inhibitor, 1h, pH 7.5. In kind it is biochemical, Porphyromonas gingivalis. The method, then: P. gingivalis was grown to exponential phase (OD 600 nm=0.6) in a Coy's anaerobic chamber under 5% hydrogen, 10% carbon dioxide, and […]. The bacteria were centrifuged at 5000×g for 10 min at 4° C., and then the supernatant was collected. The supernatant was concentrated by centrifugation at 5000×g for 60 min at 4° C. min using Corning Spin-X UF-20 concentrator tubes and then at 17,000×g for 30 min using Corning Spin-X UF500 concentrator tubes. 10 μg of Collagen type I was incubated with 0.6 μg of P. gingivalis culture supernatant for 1h in the absence or presence of 50 μM Rgp inhibitor (Compound 13, Table 1), 50 μM Kgp inhibitor ((S)—N-(6-guanidino-2-oxo-1-(2,3,5,6-tetrafluorophenoxy)hexan-3-yl)cyclopentanecarboxamide; described in U.S. Pat. Appl. Pub. No. 2016/0096830), or both. Reaction mixtures contained 5 mM cysteine, 20 mM sodium phosphate buffer, pH 7.5. After incubation, the reaction was terminated by the addition of protease inhibitor cocktail (Sigma). The samples were then analyzed by SDS-polyacrylamide gel electrophoresis. Following separation, the gels were stained with Biosafe Coomassie (Bio-Rad).

Data set [4] in a line: Plasma pharmacokinetics after subcutaneous delivery. The data set is classed as in vivo. To be noted: 10 mg/kg; for AUC(0-t): male, CD1, mouse, plasma, sc, mice. The protocol:
Compound 13 was dissolved at a concentration of 1 mg/mL in water containing carboxymethylcellulose (2% w/w) or Pluronic F127 (25% w/w). Solutions were kept on ice, and 10 mg/kg of each solution was administered to 3 male CD1 mice. Plasma was collected at 7 time points. Concentrations in plasma were determined by HPLC with tandem mass (MS/MS) detection.
Plasma samples were precipitated with a mixture containing 80% acetonitrile. Samples were further diluted with water containing 0.1% formic acid. Chromatographic separation was performed on a reversed phase column (2.1×50 mm, particle size: […], Xbridge C8, Waters, USA). Components were separated using a linear gradient of acetonitrile containing 0.1% formic acid in ultrapurified H2O containing 0.1% formic acid (flow rate 0.2 mL/min).
MS analyses were performed using an API 5500 QTRAP system having an API 5500 QTRAP detector and a Turbo Ion Spray interface (both from Applied Biosystems, USA). The acquisitions were performed in positive ionization mode, with optimized settings for the analytes. The instrument was operated in multiple-reaction-monitoring (MRM) mode, the following transition was used to quantify compound 13; 433.4->112.1. Data were calibrated and quantified using the Analyst™ data system (Applied Biosystems) using the response of the analyte versus the concentration.

The test system of another data set is P gingivalis W83. The data set can be described thus: P. gingivalis infection of brain tissue in vivo (qPCR). Further details: species or system BalbC mice. To be noted: BID subcutaneously in 25% Pluronic F127, day 35-70. The source says: BalbC mice were given a tooth ligature and infected by oral lavage with P gingivalis W83 (1×10^9 CFU in 2% carboxymethyl cellulose) or vehicle for 6 weeks. Compound 13 was delivered BID subcutaneously in 25% Pluronic F127 on day 35-70. On day 70, mice were sacrificed and perfused with PBS prior to dissection. DNA was isolated from one quarter of the brain using a DNEasy Blood & Tissue Kit (Qiagen). Forward and reverse primers for RgpB were used for qPCR to quantify P. gingivalis DNA in the brain tissue. The forward primer sequence was 5′-[…]-3′ (SEQ ID NO: 1). The reverse primer sequence was 5′-[…]-3′ (SEQ ID NO: 2). The probe sequence was 5′-6-FAM-[…]-TAMRA-3′ (SEQ ID NO: 3).
(Quantitative PCR measures a nucleic acid by following its amplification.)

Entries after “also recorded” stand apart in the source; their conditions may differ.

On trypsin, `N=C(N)NCCC[C@H](NC(=O)[C@H]1CCCNC1)C(=O)c1nc2ccccc2s1` [Compound 6, (3S)—N-[(1S)-1-(1,3-benzothiazole-2-carbonyl)-4-guanidino-butyl]piperidine-3-carboxamide] gave an IC50 of over 1000 nM. As for `CCCC(=O)N[C@@H](CCCNC(=N)N)C(=O)c1nc2ccccc2s1` [Compound 2, N-[(1S)-1-(1,3-benzothiazole-2-carbonyl)-4-guanidino-butyl]butanamide], the results for the half-maximal inhibitory concentration (IC50) at RgpB and at trypsin were under 2 nM and over 1000 nM, respectively. Turning to `CN(NC(=O)CC[C@H](NC(=O)OCc1ccccc1)C(=O)N[C@@H](CCCCN)C(=O)C(=O)NCc1ccccc1)c1ccccc1` [Kyt-36], in data set [1], the Half-life result is on record as “increases the half-life”. Regarding `N=C(N)NCCC[C@H](NC(=O)c1ccccc1)C(=O)c1nc2ccccc2s1` [Compound 3, N-[(1S)-1-(1,3-benzothiazole-2-carbonyl)-4-guanidino-butyl]benzamide], the IC50 is under 2 nM at RgpB and over 1000 nM against trypsin. In turn, `N=C(N)NCCC[C@H](NC(=O)c1ccccc1C(F)(F)F)C(=O)c1nc2ccccc2s1` [Compound 4, N-[(1S)-1-(1,3-benzothiazole-2-carbonyl)-4-guanidino-butyl]-2-(trifluoromethyl)benzamide] came in with an IC50 on trypsin of over 350 nM.

On trypsin, `CC[C@H](NC(C)=O)C(=O)NC(CCCNC(=N)N)C(=O)c1nc2ccccc2s1` (single isomer, unassigned) [Compound 11] yielded an IC50 of over 40 nM. Regarding `N=C(N)NCCCC(NC(=O)[C@H]1CC[C@@H](N)C1)C(=O)c1nc2ccccc2s1` (single isomer, unassigned) [Compound 10], the IC50 against trypsin is over 1000 nM. In the case of `N=C(N)NCCC[C@H](NC(=O)CCCN)C(=O)c1nc2ccccc2s1` [Compound 5, 4-amino-N-[(1S)-1-(1,3-benzothiazole-2-carbonyl)-4-guanidino-butyl]butanamide], the IC50 against trypsin is over 1000 nM. `N=C(N)NCCC[C@H](NC(=O)[C@H]1CCNC1)C(=O)c1nc2ccccc2s1` [Compound 8, (3S)—N-[1-(1,3-benzothiazole-2-carbonyl)-4-guanidino-butyl]pyrrolidine-3-carboxamide] returned an IC50 on trypsin of over 1000 nM. For `[N-]=[N+]=Nc1cccc(C(=O)N[C@@H](CCCNC(=N)N)C(=O)COc2c(F)c(F)cc(F)c2F)c1` [Compound 14, 3-azido-N-[(1S)-4-guanidino-1-[2-(2,3,5,6-tetrafluorophenoxy)acetyl]butyl]benzamide], the IC50 at RgpA was under 0.5 nM; against Kgp, over 450 nM. For `N=C(N)NCCC[C@H](NC(=O)C1CCCC1)C(=O)COc1c(F)c(F)cc(F)c1F` [Compound 13, N-[(1S)-4-guanidino-1-[2-(2,3,5,6-tetrafluorophenoxy)acetyl]butyl]cyclopentanecarboxamide], the “Rescue of cells from P. gingivalis toxicity” value in [2] is reported as “can rescue; also recorded: prevented the toxicity”. The IC50 against RgpA was under 0.5 nM; against RgpB, under 1 nM; against Kgp, over 150 nM. Further, in data set [3], the “Degradation of collagen type I by P. gingivalis culture supernatant” value is listed as “prevent degradation of collagen”. In addition, in [4] (Pluronic F127 versus carboxymethylcellulose), the “Plasma concentration over time” value is “increased concentration”. Also, the AUC(0-t) in data set [4] (in 2% carboxymethylcellulose) was found to be 687 ng·h/mL; in [4] (in 25% Pluronic F127) it was 2120 ng·h/mL. Further, the “P. gingivalis DNA in brain tissue by qPCR” value in the data set on P gingivalis W83 is recorded as “demonstrates efficacy”.

In the case of `CC[C@H](NC(C)=O)C(=O)NC(CCCNC(=N)N)C(=O)c1nc2ccccc2s1` (single isomer, unassigned) [Compound 12], the IC50 against RgpB was under 2 nM. Same read-out and setting: next, `N=C(N)NCCCC(NC(=O)[C@H]1CC[C@@H](N)C1)C(=O)c1nc2ccccc2s1` (single isomer, unassigned) [Compound 9]: under 2 nM. `N=C(N)NCCC[C@@H](NC(=O)[C@H]1CCCNC1)C(=O)c1nc2ccccc2s1` [Compound 7, (3S)—N-[(1R)-1-(1,3-benzothiazole-2-carbonyl)-4-guanidino-butyl]piperidine-3-carboxamide]: the IC50 against trypsin is over 1000 nM. `N=C(N)NCCC[C@H](NC(=O)C1CCCC1)C(=O)c1nc2ccccc2s1` [Compound 1, N-[(1S)-1-(1,3-benzothiazole-2-carbonyl)-4-guanidino-butyl]cyclopentanecarboxamide] displayed an IC50 on RgpB of under 1 nM.

As usually defined, the IC50 is the concentration that inhibits the measured activity by half. In general, AUC(0-t) refers to exposure summed from dosing to a finite time, without extrapolation to infinity. Low values mean low exposure, high ones high exposure.
